This note sets out measurements from patent US20200325543A1, “DIAGNOSTIC METHOD” (TOLREMO THERAPEUTICS AG, priority 2017, published 2020).

Values joined by “and” are separate entries in the source; they are usually repeats but may differ in a detail not shown here. Equal entries are not always repeated. Structures can show the parent of a compound that is named as a salt. Where two headings read alike, the source gives them in different places.

For the assay, the system named is SOX2. Briefly: Screen of a library of FDA-approved drugs for SOX2 antibody staining in A375 cells treated with PLX4720 and AZD6244. The conditions noted are these: for cor. loess / raw / norm: A375 cells, 5 uM test drug with 1 uM PLX4720 and 0.5 uM AZD6244, 24 h; for cor. loess: normalized and geometry-corrected (loess) signal; for raw: raw signal (ratio of FL2 SOX2 antibody and FL3 nuclear staining), screen run in duplicate; for norm: signal after plate normalization.

[1] abbreviates: Z-test against negative controls (DMSO), single dose 5 uM.

Take `CC(=O)OCC(=O)[C@@]1(O)CC[C@H]2[C@@H]3CCC4=CC(=O)C=C[C@]4(C)[C@@]3(Cl)[C@@H](Cl)C[C@@]21C` [DICHLORISONE ACETATE]: the cor. loess amounted to 0.4911, the raw was determined as 0.9771 and the norm came out at 0.4765. The compound also had a z under setting [1] of 5.445.
For `C[C@H]1O[C@@H](O[C@H]2[C@@H](O)C[C@H](O[C@H]3[C@@H](O)C[C@H](O[C@H]4CC[C@@]5(C)[C@H](CC[C@@H]6[C@@H]5CC[C@]5(C)[C@@H](C7=CC(=O)OC7)CC[C@]65O)C4)O[C@@H]3C)O[C@@H]2C)C[C@H](O)[C@@H]1O` [DIGITOXIN], in that order: 1.488, 0.9468, 1.549 and 12.26.
As for `C[C@H]1O[C@@H](O[C@H]2[C@@H](O)C[C@H](O[C@H]3[C@@H](O)C[C@H](O[C@H]4CC[C@@]5(C)[C@H](CC[C@@H]6[C@@H]5C[C@@H](O)[C@]5(C)[C@@H](C7=CC(=O)OC7)CC[C@]65O)C4)O[C@@H]3C)O[C@@H]2C)C[C@H](O)[C@@H]1O` [DIGOXIN], the cor. loess is on record as 1.623, the raw is listed as 0.9433 and the norm came out at 1.668. The same compound registered a z under setting [1] of 13.38.
As to `CCCCc1oc2ccc(NS(C)(=O)=O)cc2c1C(=O)c1ccc(OCCCN(CCCC)CCCC)cc1` [DRONEDARONE HYDROCHLORIDE], the cor. loess is listed as 3.823, the raw was 0.8721 and the norm came to 4.004. Besides, the z under setting [1] worked out at 52.01.
The like results for `CCCC(=O)O[C@]1(C(=O)COC(C)=O)CC[C@H]2[C@@H]3C[C@H](F)C4=CC(=O)C=C[C@]4(C)[C@@]3(F)[C@@H](O)C[C@@]21C` [Difluprednate] were, in that order, 0.4529, 0.9801, 0.4293 and 4.842.
As for `CCOC(=O)COc1ccc2c(=O)cc(-c3ccccc3)oc2c1` [EFLOXATE], the cor. loess turned out to be 1.468, the raw stood at 0.955 and the norm is 1.397. The compound also returned a z under setting [1] of 5.713.
Turning to `CC[C@H]1CN2CCc3cc(OC)c(OC)cc3[C@@H]2C[C@@H]1C[C@H]1NCCc2cc(OC)c(OC)cc21` [EMETINE DIHYDROCHLORIDE], the z is on record as 11.78, the cor. loess is listed as 1.429, the raw was found to be 0.9485 and the norm turned out to be 1.489.
On to `Nc1ccccc1NC(=O)c1ccc(CNC(=O)OCc2cccnc2)cc1` [Entinostat (MS-275), Entinostat], for which the cor. loess came to 0.6933, the raw stood at 0.9672 and the norm came to 0.8427. The compound further showed a z under setting [1] of 5.41.
On to `Cc1cc(C#N)cc(C)c1Oc1nc(Nc2ccc(C#N)cc2)nc(N)c1Br` [Etravirine (TMC125), Etravirine], for which the cor. loess was found to be 0.646, the raw was 0.9731 and the norm was found to be 0.6589. Under setting [1], the z stood at 6.907.
The like results for `COC(=O)Nc1nc2ccc(Sc3ccccc3)cc2[nH]1` [FENBENDAZOLE] were, in that order, 0.4709, 0.9808, 0.4377 and 4.041.
For `O=c1[nH]c(=O)n([C@H]2C[C@H](O)[C@@H](CO)O2)cc1F` [FLOXURIDINE], in that order: 0.3344, 0.9795, 0.4513 and 4.549.
For `CC(=O)OCC(=O)[C@@]1(O)CC[C@H]2[C@@H]3CCC4=CC(=O)CC[C@]4(C)[C@@]3(F)[C@@H](O)C[C@@]21C` [FLUDROCORTISONE ACETATE], in that order: 0.4578, 0.977, 0.5063 and 3.773.
For the compound `C[C@@H]1C[C@H]2[C@@H]3C[C@H](F)C4=CC(=O)C=C[C@]4(C)[C@@]3(F)[C@@H](O)C[C@]2(C)[C@@]1(O)C(=O)COC(=O)C(C)(C)C` [FLUMETHAZONE PIVALATE], the cor. loess worked out at 0.4809, the raw worked out at 0.9766 and the norm is 0.5179. Further, under setting [1], the z was determined as 3.963.
The like results for `CC1(C)O[C@@H]2C[C@H]3[C@@H]4C[C@H](F)C5=CC(=O)C=C[C@]5(C)[C@H]4[C@@H](O)C[C@]3(C)[C@]2(C(=O)CO)O1` [FLUNISOLIDE] were, in that order, 0.6279, 0.9737, 0.6807 and 5.388.
For `CC1(C)O[C@@H]2C[C@H]3[C@@H]4C[C@H](F)C5=CC(=O)C=C[C@]5(C)[C@@]4(F)[C@@H](O)C[C@]3(C)[C@]2(C(=O)CO)O1` [FLUOCINOLONE ACETONIDE], in that order: 0.4202, 0.9791, 0.434 and 3.463.
The like results for `CC(=O)OCC(=O)[C@@]12OC(C)(C)O[C@@H]1C[C@H]1[C@@H]3C[C@H](F)C4=CC(=O)C=C[C@]4(C)[C@@]3(F)[C@@H](O)C[C@@]12C` [FLUOCINONIDE] were, in that order, 0.4293, 0.9797, 0.4123 and 3.538.
On to `CCC(=O)O[C@]1(C(=O)SCF)[C@H](C)C[C@H]2[C@@H]3C[C@H](F)C4=CC(=O)C=C[C@]4(C)[C@@]3(F)[C@@H](O)C[C@@]21C` [FLUTICASONE PROPIONATE], for which the cor. loess is 0.6875, the raw came to 0.9704 and the norm is 0.713. The z under setting [1] stood at 4.067.
The like results for `C[C@]12CCC(=O)C(O)=C1CC[C@@H]1[C@@H]2CC[C@]2(C)C(=O)CC[C@@H]12` [FORMESTANE] were, in that order, 0.4179, 0.98, 0.3818 and 4.633.
For `COc1ccc(/C=C\c2cc(OC)c(OC)c(OC)c2)cc1OP(=O)([O-])[O-].[Na+].[Na+]` [Fosbretabulin (Combretastatin A4 Phosphate (CA4P)) Disodium], in that order: 0.3981, 0.9814, 0.3844 and 4.256.
The like results for `CN(C)c1ccc(C(=C2C=CC(=[N+](C)C)C=C2)c2ccc(N(C)C)cc2)cc1` [GENTIAN VIOLET] were, in that order, 1.077, 0.9601, 1.09 and 8.875.
In the case of `CC1(C)O[C@@H]2C[C@H]3[C@@H]4CCC5=CC(=O)CC[C@]5(C)[C@@]4(F)[C@@H](O)C[C@]3(C)[C@]2(C(=O)CCl)O1` [HALCINONIDE], the cor. loess was found to be 0.2632, the raw is on record as 0.9853 and the norm is listed as 0.2586. Under setting [1], this compound yielded a z of 3.581.
The like results for `CCCCC(CC)CN1CN(CC(CC)CCCC)CC(C)(N)C1` (centres unmarked) [HEXETIDINE] were, in that order, 0.3155, 0.9834, 0.2651 and 3.497.
As to `CCC(=O)O[C@]1(C(=O)CCl)[C@@H](C)C[C@H]2[C@@H]3C[C@H](F)C4=CC(=O)C=C[C@]4(C)[C@@]3(F)[C@@H](O)C[C@@]21C` [Halobetasol Propionate], the cor. loess amounted to 0.4055, the raw is given as 0.9809 and the norm is reported as 0.3998. Further, the z under setting [1] worked out at 4.335.
For `COC(=O)C[C@](O)(CCCC(C)(C)O)C(=O)O[C@@H]1C(OC)=C[C@]23CCCN2CCc2cc4c(cc2[C@H]13)OCO4` [Homoharringtonine], in that order: 1.181, 0.9576, 1.161 and 8.354.
`O=c1[nH]c(=O)n([C@H]2C[C@H](O)[C@@H](CO)O2)cc1I` [IDOXURIDINE]: the cor. loess worked out at 0.715, the raw came to 0.9726 and the norm is 0.7167. In addition, the z under setting [1] is listed as 6.136.
For `CC(C)Oc1ccc2c(=O)c(-c3ccccc3)coc2c1` [IPRIFLAVONE], in that order: 0.3885, 0.9807, 0.3563 and 4.307.
With `CC(=O)O[C@H]1C[C@H](O[C@H]2[C@@H](O)C[C@H](O[C@H]3[C@@H](O)C[C@H](O[C@H]4CC[C@@]5(C)[C@H](CC[C@@H]6[C@@H]5C[C@@H](O)[C@]5(C)[C@@H](C7=CC(=O)OC7)CC[C@]65O)C4)O[C@@H]3C)O[C@@H]2C)O[C@H](C)[C@H]1O[C@@H]1O[C@H](CO)[C@@H](O)[C@H](O)[C@H]1O` [LANATOSIDE C], the cor. loess was 1.074 and 1.059; the raw was 0.9723 and 0.963; the norm was 0.4949.
On to `Cc1c(OCC(F)(F)F)ccnc1C[S+]([O-])c1nc2ccccc2[nH]1` (centres unmarked) [LANSOPRAZOLE], for which the cor. loess was determined as 0.2732, the raw was 0.9819 and the norm was 0.3712. The same compound yielded a z under setting [1] of 3.717.
For `Cc1cc(Nc2ncc(Cl)c(Nc3ccccc3S(=O)(=O)C(C)C)n2)c(OC(C)C)cc1C1CCNCC1` [LDK378], in that order: 3.065, 0.8857, 3.411 and 23.92.
For `Cc1oncc1C(=O)Nc1ccc(C(F)(F)F)cc1` [LEFLUNOMIDE], in that order: 0.3194, 0.9816, 0.3831 and 4.346.
